Test results published in patent US20220249447A1, “CF3-, OCF3-, SCF3-, and SF5-Containing Antibacterial Agents” (Purdue Research Foundation, priority 2019, published 2022).
Values after ≈ are worked out from the molar mass of the structure shown.

Tests used:
[1] = tested on: MRSA ATCC 33592; test: MIC, broth microdilution, MRSA ATCC 33592; format: cell-based, methicillin-resistant S. aureus; settings: Staphylococcus aureus
Procedure: All MRSA isolates were acquired from BEI Resources. The remaining bacteria were purchased from the American Type Culture Collection (ATCC).
(§1) Bacteria were cultured in cation-adjusted Mueller Hinton Broth (for strains in Tables 1-3) or Brain Heart Infusion broth (for Enterococcus faecium) or Tryptic Soy Broth (all other bacteria) in a 96-well plate at 37° C. for at least 20 hours. The MIC was classified as the lowest concentration where no visual growth of bacteria was observed. The minimum bactericidal concentration (MBC) was tested by spotting 4 μL from wells with no growth onto Tryptic Soy Agar (TSA) plates. Plates were incubated at 37° C. for at least 18 hours before recording the MBC.

[2] = tested on: S. aureus; test: MIC, broth microdilution, S. aureus; format: cell-based; settings: Staphylococcus aureus
Procedure: as §1

SMILES	MIC [1] [µg/mL]	MIC [2] [µg/mL]	MIC ([1]; 20 h) [µg/mL]	MIC ([2]; 20 h) [µg/mL]
O=S(=O)(Nc1nnc(-c2cccc(Cl)c2)o1)c1ccc(S(F)(F)(F)(F)F)cc1 [HSGN-255, N-(5-(3-chlorophenyl)-1,3,4-oxadiazol-2-yl)-4-(pentafluoro-δ6-sulfaneyl)benzenesulfonamide]	> 64	> 64	–	–
O=C(Nc1nnc(-c2cccc(Cl)c2)o1)c1ccc(OC(F)(F)F)c([N+](=O)[O-])c1 [HSGN-262, N-(5-(3-chlorophenyl)-1,3,4-oxadiazol-2-yl)-3-nitro-4-(trifluoromethoxy)benzamide]	16 (≈ 37.3 µM)	16 (≈ 37.3 µM)	–	–
O=C(Nc1nnc(-c2cccs2)o1)c1ccc(OC(F)F)cc1 [HSGN-143, 4-(difluoromethoxy)-N-(5-(thiophen-2-yl)-1,3,4-oxadiazol-2-yl)benzamide]	32 (≈ 94.9 µM)	32 (≈ 94.9 µM)	–	–
O=C(Nc1nnc(-c2ccccc2)o1)c1ccc(SC(F)(F)F)cc1 [HSGN-280, N-(5-phenyl-1,3,4-oxadiazol-2-yl)-4-((trifluoromethyl)thio)benzamide]	1 (≈ 2.74 µM)	1 (≈ 2.74 µM)	–	–
O=C(Nc1nnc(-c2cccs2)o1)c1ccc(C(F)(F)F)cn1 [HSGN-172, N-(5-(thiophen-2-yl)-1,3,4-oxadiazol-2-yl)-5-(trifluoromethyl)picolinamide]	32 (≈ 94 µM)	64 (≈ 188 µM)	–	–
O=C(Nc1noc(-c2ccc(C(F)(F)F)cc2)n1)c1ccc(SC(F)(F)F)cc1 [HSGN-257, N-(5-(4-(trifluoromethyl)phenyl)-1,2,4-oxadiazol-3-yl)-4-((trifluoromethyl)thio)benzamide]	> 64	> 64	–	–
O=C(Nc1nnc(-c2cccnc2)o1)c1ccc(SC(F)(F)F)cc1 [HSGN-206, N-(5-(pyridin-3-yl)-1,3,4-oxadiazol-2-yl)-4-((trifluoromethyl)thio)benzamide]	32 (≈ 87.4 µM)	32 (≈ 87.4 µM)	–	–
O=C(Nc1nnc(-c2cccs2)o1)c1ccc(C(F)(F)F)o1 [HSGN-169, N-(5-(thiophen-2-yl)-1,3,4-oxadiazol-2-yl)-5-(trifluoromethyl)furan-2-carboxamide]	> 64	> 64	–	–
O=C(Nc1nnc(-c2cccs2)o1)c1cccc(C(F)(F)F)n1 [HSGN-184, N-(5-(thiophen-2-yl)-1,3,4-oxadiazol-2-yl)-6-(trifluoromethyl)picolinamide]	16 (≈ 47 µM)	16 (≈ 47 µM)	–	–
O=C(Nc1cnn(-c2ccccc2)c1)c1ccc(S(F)(F)(F)(F)F)cc1 [HSGN-2135, 4-(pentafluoro-λ^6-sulfaneyl)-N-(1-phenyl-1H-pyrazol-4-yl)benzamide]	> 128	> 128	–	–
COc1ccc(-c2nnc(NC(=O)c3ccc(SC(F)(F)F)cc3)o2)cc1 [HSGN-207, N-(5-(4-methoxyphenyl)-1,3,4-oxadiazol-2-yl)-4-((trifluoromethyl)thio)benzamide]	8 (≈ 20.2 µM)	16 (≈ 40.5 µM)	–	–
FC(F)(F)Sc1ccc(-n2cc(-c3nnc(-c4cccc(Cl)c4)o3)nn2)cc1 [HSGN-260]	–	–	> 64	> 64
O=C(Nc1nnc(-c2cccs2)o1)c1cc(C(F)(F)F)n[nH]1 [HSGN-183, N-(5-(thiophen-2-yl)-1,3,4-oxadiazol-2-yl)-3-(trifluoromethyl)-1H-pyrazole-5-carboxamide]	> 64	> 64	–	–
CSc1ccc(C(=O)Nc2nnc(-c3cccs3)o2)cc1 [HSGN-251, 4-(methylthio)-N-(5-(thiophen-2-yl)-1,3,4-oxadiazol-2-yl)benzamide]	8 (≈ 25.2 µM)	16 (≈ 50.4 µM)	–	–
COc1ccc(Cl)cc1-c1nnc(NC(=O)c2ccc(SC(F)(F)F)cc2)o1 [HSGN-252, N-(5-(5-chloro-2-methoxyphenyl)-1,3,4-oxadiazol-2-yl)-4-((trifluoromethyl)thio)benzamide]	1 (≈ 2.33 µM)	2 (≈ 4.65 µM)	–	–
O=C(Nc1nnc(-c2cccs2)o1)c1ccc(SC(F)F)cc1 [HSGN-250, 4-((difluoromethyl)thio)-N-(5-(thiophen-2-yl)-1,3,4-oxadiazol-2-yl)benzamide]	2 (≈ 5.66 µM)	4 (≈ 11.3 µM)	–	–
O=C(Nc1nnc(-c2cccs2)o1)c1ccc(C(F)(F)F)nc1 [HSGN-171, N-(5-(thiophen-2-yl)-1,3,4-oxadiazol-2-yl)-6-(trifluoromethyl)nicotinamide]	8 (≈ 23.5 µM)	16 (≈ 47 µM)	–	–
O=C(Nc1nnc(-c2cccs2)o1)c1ncc(C(F)(F)F)s1 [HSGN-168, N-(5-(thiophen-2-yl)-1,3,4-oxadiazol-2-yl)-5-(trifluoromethyl)thiazole-2-carboxamide]	8 (≈ 23.1 µM)	16 (≈ 46.2 µM)	–	–

The remaining molecules from weak to strong by MIC [1], led by results:

MIC [1] [µg/mL]	MIC [2] [µg/mL]	MIC ([1]; 20 h) [µg/mL]	MIC ([2]; 20 h) [µg/mL]	SMILES
1 (≈ 3.04 µM)	1 (≈ 3.04 µM)	–	–	Cc1nnc(NC(=O)c2ccc(S(F)(F)(F)(F)F)cc2)o1 [HSGN-2140, N-(5-methyl-1,3,4-oxadiazol-2-yl)-4-(pentafluoro-λ^6-sulfaneyl)benzamide]
1 (≈ 2.5 µM)	1 (≈ 2.5 µM)	–	–	O=C(Nc1nnc(-c2cccc(Cl)c2)o1)c1cccc(SC(F)(F)F)c1 [HSGN-2111, N-(5-(3-chlorophenyl)-1,3,4-oxadiazol-2-yl)-3-((trifluoromethyl)thio)benzamide]
0.5 (≈ 1.17 µM)	0.5 (≈ 1.17 µM)	–	–	O=C(Nc1nnc(-c2cccc(Cl)c2)o1)c1cccc(S(F)(F)(F)(F)F)c1 [HSGN-2112, N-(5-(3-chlorophenyl)-1,3,4-oxadiazol-2-yl)-3-(pentafluoro-λ^6-sulfaneyl)benzamide]
0.5 (≈ 1.3 µM)	0.5 (≈ 1.3 µM)	–	–	O=C(Nc1nnc(-c2ccccc2F)o1)c1ccc(SC(F)(F)F)cc1 [HSGN-2114, N-(5-(2-fluorophenyl)-1,3,4-oxadiazol-2-yl)-4-((trifluoromethyl)thio)benzamide]
0.5 (≈ 1.16 µM)	0.5 (≈ 1.16 µM)	–	–	COc1cc(Cl)cc(-c2nnc(NC(=O)c3ccc(SC(F)(F)F)cc3)o2)c1 [HSGN-266, N-(5-(3-chloro-5-methoxyphenyl)-1,3,4-oxadiazol-2-yl)-4-((trifluoromethyl)thio)benzamide]
0.5 (≈ 1.25 µM)	0.5 (≈ 1.25 µM)	–	–	O=C(Nc1nnc(-c2ccccc2Cl)o1)c1ccc(SC(F)(F)F)cc1 [HSGN-2115, N-(5-(2-chlorophenyl)-1,3,4-oxadiazol-2-yl)-4-((trifluoromethyl)thio)benzamide]
0.25 (≈ 0.599 µM)	0.125 (≈ 0.3 µM)	–	–	O=C(Nc1nnc(-c2ccc(C(F)(F)F)cc2)o1)c1ccc(OC(F)(F)F)cc1 [HSGN-220, 4-(trifluoromethoxy)-N-(5-(4-(trifluoromethyl)phenyl)-1,3,4-oxadiazol-2-yl)benzamide]
0.25 (≈ 0.579 µM)	0.25 (≈ 0.579 µM)	–	–	O=C(Nc1nnc(-c2ccc(Cl)s2)o1)c1ccc(S(F)(F)(F)(F)F)cc1 [HSGN-2113, N-(5-(5-chlorothiophen-2-yl)-1,3,4-oxadiazol-2-yl)-4-(pentafluoro-λ^6-sulfaneyl)benzamide]
0.0625 (≈ 0.156 µM)	0.0625 (≈ 0.156 µM)	–	–	O=C(Nc1nnc(-c2ccc(Cl)cc2)o1)c1ccc(SC(F)(F)F)cc1 [HSGN-282, N-(5-(4-chlorophenyl)-1,3,4-oxadiazol-2-yl)-4-((trifluoromethyl)thio)benzamide]
0.0625 (≈ 0.163 µM)	0.0625 (≈ 0.163 µM)	–	–	O=C(Nc1nnc(-c2ccc(F)cc2)o1)c1ccc(SC(F)(F)F)cc1 [HSGN-281, N-(5-(4-fluorophenyl)-1,3,4-oxadiazol-2-yl)-4-((trifluoromethyl)thio)benzamide]
0.0625 (≈ 0.16 µM)	0.0625 (≈ 0.16 µM)	–	–	N#Cc1cccc(-c2nnc(NC(=O)c3ccc(SC(F)(F)F)cc3)o2)c1 [HSGN-283, N-(5-(3-cyanophenyl)-1,3,4-oxadiazol-2-yl)-4-((trifluoromethyl)thio)benzamide]
